Results reported in US4658013A, “Analgesic and/or opiate antagonist tripeptide amides and processes for preparation and compositions thereof” (Sterling Drug Inc., priority 1983, dated 1987).
Non-standard residues stand in square brackets, D forms with d. No end group written: not given here.

Assays:
[1] = tested on: guinea pig ileum longitudinal muscle with adhering myenteric plexus; experiment: Guinea pig ileum test (inhibition of electrically induced twitch of longitudinal muscle strips); type: cell-based; settings: ratio of IC50 of reference Met^5-enkephalin to IC50 of test compound in the same preparation, averaged (N=4); reference given as 100
Experimental: Adult male guinea pigs (Charles River, Hartley strain) weighing 300-500 g. are decapitated, and the terminal ileum is exposed by reflecting the overlying cecum, severed at the ileocecal juncture, and removed while cutting the mesenteric attachments to avoid excessive traction on the tissue. The ileum (about 30 cm. in length) is transferred to a beaker containing warm modified Krebs-Henseleit solution (118 mM sodium chloride, 4.75 mM potassium chloride, 2.54 mM calcium chloride, 1.19 mM potassium dihydrogen phosphate, 1.2 mM magnesium sulfate, 25 mM sodium bicarbonate, 11 mM glucose, 20 μM choline chloride and 0.125 μM pyrilamine maleate). The terminal (aboral) portion (about 10 cm, in length) is discarded, and segments (3-4 cm. in length) are cut from the remainder and gently slid onto a glass rod (5-6 mm. in diameter) and arranged so that the mesenteric attachment is in a straight line. A cotton swab moistened in the solution is then carefully used to separate the longitudinal muscle from the underlying circular muscle. The longitudinal muscle and adhering myenteric plexus is then gently removed from the remaining tissue with forceps.
Strips of thus prepared longitudinal muscle are mounted in a double-jacketed organ bath (5 ml.) under tension (1.0 g.), connected to isometric transducers (Grass FT 0.03), bathed in the modified Krebs-Henseleit solution described above, aerated with oxygen-carbon dioxide (95:5) and maintained at 37° C.
Stimulators (Grass S-44) are set to deliver repetitive, monophasic square wave field stimulation (supramaximal voltage, 0.10 Hz., 0.25 msec. duration) through platinum ring electrodes at the top and bottom of the bath. Regular contractions of the muscle, which result from electrically-induced liberation of acetylcholine from postganglionic parasympathetic nerves, are recorded on a polygraph (Grass model 5). Following tissue equilibration (45-60 min.) and repeated washing (every 10 min.) an aqueous solution of a reference or test compound is added to the bath in a microliter volume (1.25-250 μl) and reductions in muscle twitch height are recorded. More compound can be added […] first washing the preparation.
From the results a half-maximal inhibitory concentration (IC50) value for the compound is computed by regression analysis of a linear plot of logarithm of concentration against percent of inhibition of twitch height (probits). The ratio of the IC50 value of a reference compound to that of a test compound tested in the same preparation is the molar potency ratio. At least four preparations are tested simultaneously (N=4), and the resulting molar potency ratios are averaged.
The following results were obtained using the examples as test compounds and Met^5 -enkephalin as the reference compound: […]

[2] = tested on: guinea pig ileum longitudinal muscle with adhering myenteric plexus; settings: Vavrek et al., Abstract P-76, 1981; cited from earlier work

Row | Compound | Average Molar Potency Ratio [1] | activity as % of Met-enkephalin on the stimulated guinea pig ileum [2] [%]
1 | CC(C)CCNC(=O)[C@H](Cc1ccccc1)NC(=O)[C@@H](C)NC(=O)[C@@H](N)Cc1ccc(O)cc1 [Example 1, L-tyrosyl-D-alanyl-N-(3-methylbutyl)-L-phenylalaninamide] | 25 | –
2 | CC(C)CCN(CCc1ccccc1)C(=O)[C@H](Cc1ccccc1)NC(=O)[C@@H](C)NC(=O)[C@@H](N)Cc1ccc(O)cc1 [Example 2, L-tyrosyl-D-alanyl-N-(3-methylbutyl)-N-(2-phenylethyl)-L-phenylalaninamide] | 6 | –
3 | CC(C)CCNC(=O)[C@H](Cc1ccccc1)NC(=O)[C@@H](CN(C)C)NC(=O)[C@@H](N)Cc1ccc(O)cc1 [Example 3, L-tyrosyl-3-(dimethylamino)-D-alanyl-N-(3-methylbutyl)-L-phenylalaninamide] | 5 | –
4 | D,L-N-(3-methylbutyl)-2-[(L-tryosyl-D-alanyl)amino]benzenepentanamide [Example 7] | 5 | –
5 | Met^5 -enkephalin [reference compound] | 100 | –
6 | Tyr-[dA]-Phe-NH2 | – | 25
